Source: article PMC9525273 (Nature Communications, 2022)
Where “and” joins values, the source holds several entries; their conditions need not be identical. Identical values can stand only once. Entries after “also recorded” stand apart in the source; their conditions may differ. Like-named read-outs stand apart in the source and are kept apart here.

Tests used:
Assay type in all cases: cell-based, Plasmodium falciparum
[1] = test system: parasite lines with a G358S mutation in PfATP4; assay: P. falciparum proliferation assays, statements on all lines with the G358S mutation; conditions: G358S lines vs PfATP4 wild-type controls
Method: (§1) Two types of parasite proliferation assays were employed in this study, with both yielding highly consistent results. For the NF54-based lines and Dd2-B2-PfATP4^G358S and its parent, assays were initiated with cultures containing predominantly ring-stage parasites with a parasitaemia of 0.3% and a haematocrit of 1%. All assays using NF54 were performed in culture media containing 10% O + human serum. The duration of the assays was 72 h and the concentration of DMSO was <0.5% (v/v). Serial dilutions of the test compounds were performed using a Tecan D300e digital dispenser, with parasite cultures added manually. Parasite survival was assessed by flow cytometry on an Intellicyt iQue3 (Essen Bioscience), with 1× SYBR Green I (Invitrogen) and 200 nM MitoTracker Deep Red FM (Invitrogen) used to stain the nucleus and the mitochondria in live parasites, respectively. The gating strategy used to quantify parasite survival, performed using FlowJo version 10 (FlowJo LLC.), is illustrated in Supplementary Fig. 9. IC50 and IC90 values were calculated by linear interpolation of the dose-response data.
(§2) For experiments with all other parasites, the effects of compounds of interest on parasite proliferation was measured in 96-well plates containing serial dilutions of the compounds in culture medium, with a fluorescent DNA-intercalating dye used to detect surviving parasites. The assays were initiated with erythrocytes infected with predominantly ring-stage parasites, and the starting parasitaemia and haematocrit were both 1%. […] Fluorescence was measured using a FLUOstar OPTIMA plate reader (BMG LABTECH), with OPTIMA version 2.20R2 and MARS Data Analysis Software version 3.01 R2 (BMG LABTECH).

[2] = test system: NF54^WT parasites; assay: microbe, parasite or virus in culture; conditions: for FC (IC50) / FC (IC90): NF54WT, reference line
Method: as §1, with “For” for “Two types of parasite proliferation assays were employed in this study, with both yielding highly consistent results. For”

[3] = test system: gene-edited NF54 lines (NF54^CTL, NF54^G358S-1, NF54^G358S-2); assay: P. falciparum proliferation assay, statements on several edited NF54 lines; conditions: all edited NF54 lines, including NF54CTL, vs NF54WT
Method: as §1

[4] = test system: NF54^G358S-2 parasites; assay: P. falciparum proliferation assay (72 h, flow cytometry, SYBR Green I/MitoTracker); conditions: for FC (IC50) / FC (IC90): NF54G358S-2 compared to NF54WT
Method: as §1, with “For” for “Two types of parasite proliferation assays were employed in this study, with both yielding highly consistent results. For”

[5] = test system: NF54^CTL parasites; assay: as above; conditions: for FC (IC50) / FC (IC90): NF54CTL compared to NF54WT
Method: as §1, with “For” for “Two types of parasite proliferation assays were employed in this study, with both yielding highly consistent results. For”

[6] = test system: NF54^G358S-1 parasites; assay: as above; conditions: for FC (IC50) / FC (IC90): NF54G358S-1 compared to NF54WT
Method: as §1, with “For” for “Two types of parasite proliferation assays were employed in this study, with both yielding highly consistent results. For”

[7] = test system: Dd2-Polδ-PfATP4^G358S parasites; assay: P. falciparum proliferation assay (72 h, fluorescent DNA-intercalating dye)
Method: (§3) For experiments with all other parasites, the effects of compounds of interest on parasite proliferation was measured in 96-well plates containing serial dilutions of the compounds in culture medium, with a fluorescent DNA-intercalating dye used to detect surviving parasites. The assays were initiated with erythrocytes infected with predominantly ring-stage parasites, and the starting parasitaemia and haematocrit were both 1%.

[8] = test system: Dd2-Polδ parasites; assay: as above
Method: as §3

[9] = test system: MMV665949-selected Culture 1 (from Dd2-Polδ; not cloned); assay: as above; conditions: n = 4
Method: as §2

[10] = NF54WT parasites, individual experiments, read-out: IC50 values
[11] = NF54WT parasites, individual experiments, read-out: IC90 values
[12] = Plasmodium falciparum, NF54, NF54WT parasites, mean of the experiments, read-out: IC50 values, MEAN
[13] = Plasmodium falciparum, NF54, NF54WT parasites, mean of the experiments, read-out: IC90 values, MEAN
[14] = NF54G358S-2 parasites, individual experiments, read-out: IC50 values
[15] = NF54G358S-2 parasites, individual experiments, read-out: IC90 values
[16] = Plasmodium falciparum, NF54, NF54G358S-2 parasites, individual experiments, read-out: IC50 values
[17] = Plasmodium falciparum, NF54, NF54G358S-2 parasites, individual experiments, read-out: IC90 values
[18] = Plasmodium falciparum, NF54, NF54G358S-2 parasites, mean of the experiments, read-out: IC50 values, MEAN
[19] = Plasmodium falciparum, NF54, NF54G358S-2 parasites, mean of the experiments, read-out: IC90 values, MEAN
[20] = NF54CTL parasites, individual experiments, read-out: IC50 values
[21] = NF54CTL parasites, individual experiments, read-out: IC90 values
[22] = Plasmodium falciparum, NF54, NF54CTL parasites, individual experiments, read-out: IC90 values
[23] = Plasmodium falciparum, NF54, NF54CTL parasites, mean of the experiments, read-out: IC50 values, MEAN
[24] = Plasmodium falciparum, NF54, NF54CTL parasites, mean of the experiments, read-out: IC90 values, MEAN
[25] = NF54G358S-1 parasites, individual experiments, read-out: IC50 values
[26] = NF54G358S-1 parasites, individual experiments, read-out: IC90 values
[27] = Plasmodium falciparum, NF54, NF54G358S-1 parasites, individual experiments, read-out: IC50 values
[28] = Plasmodium falciparum, NF54, NF54G358S-1 parasites, individual experiments, read-out: IC90 values
[29] = Plasmodium falciparum, NF54, NF54G358S-1 parasites, mean of the experiments, read-out: IC50 values, MEAN
[30] = Plasmodium falciparum, NF54, NF54G358S-1 parasites, mean of the experiments, read-out: IC90 values, MEAN

SMILES	effect of the G358S mutation in PfATP4 on parasite susceptibility [1]	IC50 [2, 10]	IC90 [2, 11]	FC (IC50) [2]	FC (IC90) [2]	IC50 [2, 12]	IC90 [2, 13]	FC (IC50) [4]	FC (IC90) [4]	IC50 [4, 14]	IC90 [4, 15]	IC50 [4, 16]	IC90 [4, 17]	IC50 [4, 18]	IC90 [4, 19]	FC (IC50) [5]	FC (IC90) [5]	IC50 [5, 20]	IC90 [5, 21]	IC90 [5, 22]	also measured
COc1nc(C(C)C)ccc1-c1cnc2sc(N3CCC(O)(CN)CC3)nn12 [INE963]	no impact; also recorded: no effect	0.63 nM and 0.74 nM and 1.17 nM	1.68 nM and 1.36 nM and 1.75 nM and 2.98 nM	1.0 fold	1.0 fold	0.81 nM	1.9 nM	1.4 fold	1.4 fold	1.11 nM and 0.93 nM and 1.44 nM	2.37 nM and 2.77 nM and 3.43 nM	1.1 nM	2.11 nM	1.15 nM	2.7 nM	1.5 fold	1.3 fold	1.15 nM and 1.14 nM and 1.42 nM	2.46 nM and 2.4 nM and 3.34 nM	1.87 nM	IC50 ([2]; Plasmodium falciparum, NF54, NF54WT parasites, individual experiments, read-out: IC50 values): 0.7 nM; IC50 ([2]; Plasmodium falciparum, NF54, NF54WT, 10% human serum, read-out: IC50 ± SEM): 0.8 ± 0.1 nM; fold increase in IC50 value [3]: 1.4-1.5 fold; IC50 ([5]; Plasmodium falciparum, NF54, NF54CTL parasites, individual experiments, read-out: IC50 values): 1.02 nM; IC50 [5, 23]: 1.18 nM; IC90 [5, 24]: 2.5 nM; IC50 ([5]; Plasmodium falciparum, NF54, NF54CTL, 10% human serum, read-out: IC50 ± SEM): 1.2 ± 0.1 nM; FC (IC50) [6]: 1.4 fold; FC (IC90) [6]: 1.4 fold; IC50 [6, 25]: 1.09 nM and 1.1 nM and 1.41 nM; IC90 [6, 26]: 2.82 nM and 2.85 nM and 3.37 nM; IC50 [6, 27]: 0.91 nM; IC90 [6, 28]: 1.87 nM; IC50 [6, 29]: 1.13 nM; IC90 [6, 30]: 2.7 nM
Oc1ccc(C(=C(Cl)Cl)c2ccc(O)cc2)cc1 [MMV665949]																					IC50 fold higher than that of Dd2-Polδ parent ([7]; Dd2-Polδ-PfATP4G358S vs Dd2-Polδ, mean ± SEM): no significant change; IC50 ([7]; Dd2-Polδ-PfATP4G358S, Supplementary Table 1, Set 2, read-out: Mean IC50 value ± SEM for growth inhibition): 4870 ± 880 nM; IC50 ([8]; Dd2-Polδ, Supplementary Table 1, Set 2, read-out: Mean IC50 value ± SEM for growth inhibition): 4270 nM; IC50 ([8]; parental Dd2-Polδ, paired with MMV665949-selected Culture 1, n = 4, read-out: IC50): 4300 ± 700 nM; IC50 fold higher than for parental Dd2-Polδ ([9]; MMV665949-selected Culture 1, paired experiments): 10.7 ± 2.0 fold; IC50 ([9]; MMV665949-selected Culture 1, mean ± SEM, read-out: IC50): 44000 ± 7000 nM
CCCCN(CCCC)CC(O)c1cc(Cl)cc2c1-c1ccc(Cl)cc1/C2=C/c1ccc(Cl)cc1 (stereo not drawn) [Lumefantrine]	no effect	57 nM and 33.7 nM and 89.8 nM and 48.6 nM	102 nM and 140 nM and 109 nM	1.0 fold	1.0 fold	57.3 nM	123 nM	0.7 fold	1.0 fold	31.8 nM and 46.1 nM and 31.3 nM	82.7 nM and 129 nM and 123 nM	55.1 nM	152 nM	41.1 nM	122 nM	0.8 fold	1.0 fold	38.6 nM and 28.4 nM and 70.8 nM and 45.8 nM	98.1 nM and 138 nM and 120 nM	138 nM	IC90 ([2]; Plasmodium falciparum, NF54, NF54WT parasites, individual experiments, read-out: IC90 values): 142 nM; IC50 [5, 23]: 45.9 nM; IC90 [5, 24]: 123 nM; FC (IC50) [6]: 0.7 fold; FC (IC90) [6]: 1.1 fold; IC50 [6, 25]: 34 nM and 51.7 nM and 36.1 nM; IC90 [6, 26]: 115 nM and 130 nM and 120 nM; IC50 [6, 27]: 48.2 nM; IC90 [6, 28]: 182 nM; IC50 [6, 29]: 42.5 nM; IC90 [6, 30]: 137 nM
